≈ marks a conversion by molar mass, not a printed value. Where two headings read alike, the source gives them in different places.
Legend:
[1] = system: Staphylococcus aureus ATCC 29213, CCM 4223; assay: Antibacterial microdilution broth method, S. aureus; assay type: cell-based
[2] = system: Staphylococcus epidermidis H 6966/08; assay: Antibacterial microdilution broth method, S. epidermidis; assay type: cell-based; details: Staphylococcus epidermidis, H6966/08
[3] = system: Enterococcus faecalis ATCC 29212, CCM 4224; assay: Antibacterial microdilution broth method, E. faecalis; assay type: cell-based; details: Enterococcus faecalis
[4] = system: Escherichia coli ATCC 25922, CCM 3954; assay: Antibacterial microdilution broth method, E. coli; assay type: cell-based; details: Escherichia coli
[5] = system: Pseudomonas aeruginosa ATCC 27853, CCM 3955; assay: Antibacterial microdilution broth method, P. aeruginosa; assay type: cell-based; details: Pseudomonas aeruginosa, P. aeruginosa
[6] = system: Mycobacterium tuberculosis H37Rv (331/88); assay: Antimycobacterial micromethod in Šula's medium, M. tuberculosis; assay type: cell-based
[7] = system: Mycobacterium avium 330/88; assay: Antimycobacterial micromethod in Šula's medium, M. avium; assay type: cell-based
[8] = system: Mycobacterium kansasii 235/80; assay: Antimycobacterial micromethod in Šula's medium, M. kansasii 235/80; assay type: cell-based
[9] = system: M. kansasii 6509/96 (clinical isolate); assay: Antimycobacterial micromethod in Šula's medium, M. kansasii 6509/96; assay type: cell-based; details: Mycobacterium kansasii
[10] = system: Candida krusei E28; assay: Antifungal microdilution broth method, C. krusei; assay type: cell-based; details: Pichia kudriavzevii
Outline: (§1)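 Compounds were taken up in DMSO, then serially diluted twofold into MOPS-buffered (pH 7.0) RPMI-1640 containing L-glutamine and 2% glucose. Fungi were tested by microdilution following modified EUCAST guidance, and MICs were assessed by eye.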

[11] = system: Candida glabrata 20/I; assay: Antifungal microdilution broth method, C. glabrata; assay type: cell-based; details: Nakaseomyces glabratus
Outline: as §1

[12] = system: Trichosporon asahii 1188; assay: Antifungal microdilution broth method, T. asahii; assay type: cell-based
Outline: as §1

[13] = system: Aspergillus fumigatus 231; assay: Antifungal microdilution broth method, A. fumigatus; assay type: cell-based
Outline: as §1

[14] = system: Lichtheimia corymbifera 272; assay: Antifungal microdilution broth method, L. corymbifera; assay type: cell-based
Outline: as §1

[15] = system: Trichophyton interdigitale 445; assay: Antifungal microdilution broth method, T. interdigitale; assay type: cell-based
Outline: as §1

[16] = system: Klebsiella pneumoniae D 11750/08; assay: Antibacterial microdilution broth method, K. pneumoniae; details: K. pneumoniae D 11750/08; for MIC KP 24 h: 24 h incubation; for MIC KP 48 h: 48 h incubation
[17] = 24 h incubation, read-out: MIC SA 24 h
[18] = 48 h incubation, read-out: MIC SA 48 h
[19] = S. epidermidis, 24 h incubation, read-out: MIC SE 24 h
[20] = S. epidermidis, 48 h incubation, read-out: MIC SE 48 h
[21] = 24 h incubation, read-out: MIC EF 24 h
[22] = 48 h incubation, read-out: MIC EF 48 h
[23] = 24 h incubation, read-out: MIC EC 24 h
[24] = 48 h incubation, read-out: MIC EC 48 h
[25] = 24 h incubation, read-out: MIC PA 24 h
[26] = 48 h incubation, read-out: MIC PA 48 h
[27] = 336 h, 14 days incubation at 37 °C, read-out: MIC Mtb. 331/88 14 d
[28] = 504 h, 21 days incubation at 37 °C, read-out: MIC Mtb. 331/88 21 d
[29] = 330/88, 336 h, 14 days incubation at 37 °C, read-out: MIC M. avium 330/88 14 d
[30] = 330/88, 504 h, 21 days incubation at 37 °C, read-out: MIC M. avium 330/88 21 d
[31] = 235/80, 168 h, 7 days incubation at 37 °C, read-out: MIC M. kansasii 235/80 7 d
[32] = 235/80, 336 h, 14 days incubation at 37 °C, read-out: MIC M. kansasii 235/80 14 d
[33] = 235/80, 504 h, 21 days incubation at 37 °C, read-out: MIC M. kansasii 235/80 21 d
[34] = 168 h, 7 days incubation at 37 °C, read-out: MIC M. kansasii 6509/96 7 d
[35] = 336 h, 14 days incubation at 37 °C, read-out: MIC M. kansasii 6509/96 14 d
[36] = 504 h, 21 days incubation at 37 °C, read-out: MIC M. kansasii 6509/96 21 d

O=C(O)c1ccc(N=Cc2ccc(Cl)cc2O)cc1 [1l, 4-[(4-Chloro-2-hydroxybenzylidene)amino]benzoic acid]
MIC [1, 17]: > 500 µM | MIC [1, 18]: > 500 µM | MIC [2, 19]: > 500 µM | MIC [2, 20]: > 500 µM | MIC [3, 21]: > 500 µM | MIC [3, 22]: > 500 µM | MIC [4, 23]: > 500 µM | MIC [4, 24]: > 500 µM | MIC [5, 25]: > 500 µM | MIC [5, 26]: > 500 µM | MIC [6, 27]: 250 µM (≈ 68.9 µg/mL) | MIC [6, 28]: 500 µM (≈ 138 µg/mL) | MIC [7, 29]: 1000 µM (≈ 276 µg/mL) | MIC [7, 30]: 1000 µM (≈ 276 µg/mL) | MIC [8, 31]: 250 µM (≈ 68.9 µg/mL) | MIC [8, 32]: 500 µM (≈ 138 µg/mL) | MIC [8, 33]: 500 µM (≈ 138 µg/mL) | MIC [9, 34]: 250 µM (≈ 68.9 µg/mL) | MIC [9, 35]: 250 µM (≈ 68.9 µg/mL) | MIC [9, 36]: 500 µM (≈ 138 µg/mL) | MIC ([10]; 24 h, read-out: MIC CK 24 h): 500 µM (≈ 138 µg/mL) | MIC ([10]; 48 h, read-out: MIC CK 48 h): > 500 µM | MIC ([11]; 24 h, read-out: MIC CG 24 h): 500 µM (≈ 138 µg/mL) | MIC ([11]; 48 h, read-out: MIC CG 48 h): > 500 µM | MIC ([12]; 24 h, read-out: MIC TA 24 h): 500 µM (≈ 138 µg/mL) | MIC ([12]; 48 h, read-out: MIC TA 48 h): > 500 µM | MIC ([13]; 24 h, read-out: MIC AF 24 h): 250 µM (≈ 68.9 µg/mL) | MIC ([13]; 48 h, read-out: MIC AF 48 h): > 500 µM | MIC ([14]; 24 h, read-out: MIC LC 24 h): > 500 µM | MIC ([14]; 48 h, read-out: MIC LC 48 h): > 500 µM | MIC ([15]; 72 h, read-out: MIC TI 72 h): 500 µM (≈ 138 µg/mL) | MIC ([15]; 120 h, read-out: MIC TI 120 h): > 500 µM | MIC KP 24 h [16]: >500 µM | MIC KP 48 h [16]: >500 µM

O=C(O)c1ccc(N=Cc2cccc(Cl)c2O)cc1 [1m, 4-[(3-Chloro-2-hydroxybenzylidene)amino]benzoic acid]
MIC [1, 17]: > 500 µM | MIC [1, 18]: > 500 µM | MIC [2, 19]: 500 µM (≈ 138 µg/mL) | MIC [2, 20]: 500 µM (≈ 138 µg/mL) | MIC ([2]; time not stated, read-out: MIC, S. epidermidis): ≥ 250 µM | MIC [3, 21]: > 500 µM | MIC [3, 22]: > 500 µM | MIC [4, 23]: > 500 µM | MIC [4, 24]: > 500 µM | MIC [5, 25]: > 500 µM | MIC [5, 26]: > 500 µM | MIC [6, 27]: 500 µM (≈ 138 µg/mL) | MIC [6, 28]: 500 µM (≈ 138 µg/mL) | MIC [7, 29]: 1000 µM (≈ 276 µg/mL) | MIC [7, 30]: 1000 µM (≈ 276 µg/mL) | MIC [8, 31]: 500 µM (≈ 138 µg/mL) | MIC [8, 32]: 500 µM (≈ 138 µg/mL) | MIC [8, 33]: 500 µM (≈ 138 µg/mL) | MIC [9, 34]: 250 µM (≈ 68.9 µg/mL) | MIC [9, 35]: 500 µM (≈ 138 µg/mL) | MIC [9, 36]: 500 µM (≈ 138 µg/mL) | MIC ([10]; 24 h, read-out: MIC CK 24 h): 250 µM (≈ 68.9 µg/mL) | MIC ([10]; 48 h, read-out: MIC CK 48 h): 250 µM (≈ 68.9 µg/mL) | MIC ([11]; 24 h, read-out: MIC CG 24 h): 62.5 µM (≈ 17.2 µg/mL) | MIC ([11]; 48 h, read-out: MIC CG 48 h): 62.5 µM (≈ 17.2 µg/mL) | MIC ([12]; 24 h, read-out: MIC TA 24 h): 125 µM (≈ 34.5 µg/mL) | MIC ([12]; 48 h, read-out: MIC TA 48 h): 125 µM (≈ 34.5 µg/mL) | MIC ([13]; 24 h, read-out: MIC AF 24 h): 250 µM (≈ 68.9 µg/mL) | MIC ([13]; 48 h, read-out: MIC AF 48 h): 250 µM (≈ 68.9 µg/mL) | MIC ([14]; 24 h, read-out: MIC LC 24 h): 500 µM (≈ 138 µg/mL) | MIC ([14]; 48 h, read-out: MIC LC 48 h): 500 µM (≈ 138 µg/mL) | MIC ([15]; 72 h, read-out: MIC TI 72 h): 125 µM (≈ 34.5 µg/mL) | MIC ([15]; 120 h, read-out: MIC TI 120 h): 125 µM (≈ 34.5 µg/mL) | MIC KP 24 h [16]: >500 µM | MIC KP 48 h [16]: >500 µM

Source: PMC7023430, “4-Aminobenzoic Acid Derivatives: Converting Folate Precursor to Antimicrobial and Cytotoxic Agents” (Biomolecules, 2019)
